Reference: US9120774B2 (University of Kansas, priority 2009, dated 2015)
Like-named read-outs stand apart in the source and are kept apart here. One block for each compound: values may come before it.

Legend:
Format in all cases: cell-based
[1] = tested on: SkBr3 (Her2 overexpressing breast cancer cells); assay: Anti-proliferation activity against SkBr3 cells (MTS/PMS); settings: Homo sapiens, SK-BR-3
Description: (§1) Upon completion of synthesis of library of compounds in Examples 23 and 24, the compounds were evaluated for anti-proliferative activity against SkBr3 (Her2 overexpressing breast cancer cells), MCF-7 (estrogen receptor positive breast cancer cells), HCT-116 (colon cancer cells characterized by wild-type p53), PL45 (pancreatic cancer cells), LNCaP (androgen sensitive prostate cancer cells) and PC-3 (androgen independent prostate cancer cells) cell lines.
(§2) Cells were maintained in a 1:1 mixture of Advanced DMEM/F12 (Gibco) supplemented with non-essential amino acids, L-glutamine (2 mM), streptomycin (500 ng/mL), penicillin (100 units/mL), and 10% FBS. Cells were grown to confluence in a humidified atmosphere (37° C., 5% CO2), seeded (2000/well, 100 μl) in 96-well plates, and allowed to attach overnight. Compound or GDA at varying concentrations in DMSO (1% DMSO final concentration) was added, and cells were returned to the incubator for 72 hours. At 72 hours, the number of viable cells was determined using an MTS/PMS cell proliferation kit (Promega) per the manufacturer's instructions. Cells incubated in 1% DMSO were used at 100% proliferation, and values were adjusted accordingly. IC50 values were calculated from separate experiments performed in triplicate using GraphPad Prism.
as §2, with “μg/mL),” for “ng/mL),”, “μL)” for “μl)”

[2] = tested on: MCF-7 (estrogen receptor positive breast cancer cells); assay: Anti-proliferation activity against MCF-7 cells (MTS/PMS); settings: Homo sapiens, MCF7
Description: as §1, §2
as §2, with “μg/mL),” for “ng/mL),”, “μL)” for “μl)”

[3] = tested on: PC-3 (androgen independent prostate cancer cells); assay: Anti-proliferation activity against PC-3 cells; settings: Homo sapiens, PC-3
Description: as §1, with “lines. […] The monosubstituted benzamide variants improved activity.” for “lines.”
as §2, with “[…] […]” for “Compound or GDA at varying concentrations in DMSO (1% DMSO final concentration) was added, and cells were returned to the incubator for 72 hours. At 72 hours, the number of viable cells was determined using an MTS/PMS cell proliferation kit (Promega) per the manufacturer's instructions.”

[4] = tested on: LNCaP (androgen sensitive prostate cancer cells); assay: Anti-proliferation activity against LNCaP cells; settings: Homo sapiens, LNCaP
Description: as §1, with “lines. […] The monosubstituted benzamide variants improved activity.” for “lines.”
as §2

[5] = tested on: PL45 (pancreatic cancer cells); assay: Anti-proliferation activity against PL45 cells
Description: as §1, with “lines. […] The monosubstituted benzamide variants improved activity.” for “lines.”

[6] = tested on: HCT-116 (colon cancer cells characterized by wild-type p53); assay: Anti-proliferation activity against HCT-116 cells; settings: Homo sapiens
Description: as §1, with “lines. […] The monosubstituted benzamide variants improved activity.” for “lines.”

[7] = Table 7, 72 hours, MTS/PMS, mean ± standard deviation, read-out: Anti-proliferation activity SkBr3
[8] = Table 7, 72 hours, MTS/PMS, mean ± standard deviation, read-out: Anti-proliferation activity MCF-7
[9] = Table 7, 72 hours, MTS/PMS, mean ± standard deviation, read-out: Anti-proliferation activity PC-3
[10] = Table 7, 72 hours, MTS/PMS, mean ± standard deviation, read-out: Anti-proliferation activity LnCaP
[11] = Table 2, n = 3, read-out: IC50 SkBr3
[12] = Table 2, n = 3, read-out: IC50 MCF-7
[13] = Table 2, n = 3, read-out: IC50 PC-3
[14] = Table 2, n = 3, read-out: IC50 LNCaP
[15] = Table 5, heterocyclic analogues, n = 3
[16] = Table 5, heterocyclic analogues, n = 3, read-out: IC50 MCF-7
[17] = Table 5, heterocyclic analogues, n = 3, read-out: IC50 LNCaP
[18] = Table 5, heterocyclic analogues, n = 3, read-out: IC50 PC-3

SMILES: CO[C@@H]1[C@@H](O)[C@@H](O)[C@H](Oc2ccc3cc(NC(=O)c4ccccc4)c(=O)oc3c2C)OC1(C)C [compound 8, N-(7-((2R,3R,4S,5R)-3,4-Dihydroxy-5-methoxy-6,6-dimethyltetrahydro-2H-pyran-2-yloxy)-8-methyl-2-oxo-2H-chromen-3-yl)benzamide]
IC50 [1, 11]: 21.5 ± 1.4 µM
IC50 ([5]; Table 2, n = 3): 3.4 ± 0.6 µM
IC50 [2, 12]: 20.6 ± 0.4 µM
IC50 ([6]; Table 2, n = 3): 13 ± 2.1 µM
IC50 [3, 13]: 67.6 ± 9.7 µM
IC50 [4, 14]: 72 ± 4 µM

SMILES: COc1ccccc1C(=O)Nc1cc2ccc(O[C@@H]3OC(C)(C)[C@H](OC)[C@@H](O)[C@H]3O)c(C)c2oc1=O [compound 9, N-(7-((2R,3R,4S,5R)-3,4-Dihydroxy-5-methoxy-6,6-dimethyltetrahydro-2H-pyran-2-yloxy)-8-methyl-2-oxo-2H-chromen-3-yl)-2-methoxybenzamide]
IC50 [1, 11]: > 100 µM
IC50 ([5]; Table 2, n = 3): 35.8 ± 3.4 µM
IC50 [2, 12]: 5.3 ± 1.3 µM
IC50 ([6]; Table 2, n = 3): > 100 µM
IC50 [3, 13]: 9.1 ± 0.5 µM

SMILES: COc1cccc(C(=O)Nc2cc3ccc(O[C@@H]4OC(C)(C)[C@H](OC)[C@@H](O)[C@H]4O)c(C)c3oc2=O)c1 [compound 10, N-(7-((2R,3R,4S,5R)-3,4-Dihydroxy-5-methoxy-6,6-dimethyltetrahydro-2H-pyran-2-yloxy)-8-methyl-2-oxo-2H-chromen-3-yl)-3-methoxybenzamide]
IC50 [1, 11]: > 100 µM
IC50 ([5]; Table 2, n = 3): 2.8 ± 0.8 µM
IC50 [2, 12]: 5.6 ± 2.5 µM
IC50 ([6]; Table 2, n = 3): 1.9 ± 0.6 µM
IC50 [4, 14]: 21.7 ± 2 µM

SMILES: COc1ccc(C(=O)Nc2cc3ccc(O[C@@H]4OC(C)(C)[C@H](OC)[C@@H](O)[C@H]4O)c(C)c3oc2=O)cc1 [compound 11, N-(7-((2R,3R,4S,5R)-3,4-Dihydroxy-5-methoxy-6,6-dimethyltetrahydro-2H-pyran-2-yloxy)-8-methyl-2-oxo-2H-chromen-3-yl)-4-methoxybenzamide]
IC50 [1, 11]: 15.6 ± 4.2 µM
IC50 ([5]; Table 2, n = 3): 5.9 ± 2.1 µM
IC50 [2, 12]: 10.3 ± 0.9 µM
IC50 ([6]; Table 2, n = 3): 15.9 ± 1.9 µM
IC50 [3, 13]: 17.1 ± 4.3 µM
IC50 [4, 14]: 7.3 ± 0.9 µM

SMILES: CO[C@@H]1[C@@H](O)[C@@H](O)[C@H](Oc2ccc3cc(NC(=O)c4ccccc4[N+](=O)[O-])c(=O)oc3c2C)OC1(C)C [compound 15, N-(7-((2R,3R,4S,5R)-3,4-Dihydroxy-5-methoxy-6,6-dimethyltetrahydro-2H-pyran-2-yloxy)-8-methyl-2-oxo-2H-chromen-3-yl)-2-nitrobenzamide]
IC50 [1, 11]: 21.8 ± 0.8 µM
IC50 ([5]; Table 2, n = 3): 20.1 ± 4.7 µM
IC50 [2, 12]: 28.7 ± 4.8 µM
IC50 ([6]; Table 2, n = 3): 44.3 ± 4.8 µM
IC50 [4, 14]: 16.8 ± 0.8 µM

SMILES: CO[C@@H]1[C@@H](O)[C@@H](O)[C@H](Oc2ccc3cc(NC(=O)c4cccc([N+](=O)[O-])c4)c(=O)oc3c2C)OC1(C)C [compound 16, N-(7-((2R,3R,4S,5R)-3,4-Dihydroxy-5-methoxy-6,6-dimethyltetrahydro-2H-pyran-2-yloxy)-8-methyl-2-oxo-2H-chromen-3-yl)-3-nitrobenzamide]
IC50 [1, 11]: > 100 µM
IC50 ([5]; Table 2, n = 3): > 100 µM
IC50 [2, 12]: > 100 µM
IC50 ([6]; Table 2, n = 3): > 100 µM
IC50 [3, 13]: > 100 µM

SMILES: CO[C@@H]1[C@@H](O)[C@@H](O)[C@H](Oc2ccc3cc(NC(=O)OCc4ccccc4)c(=O)oc3c2C)OC1(C)C [compound 24, Benzyl 7-((2R,3R,4S,5R)-3,4-dihydroxy-5-methoxy-6,6-dimethyltetrahydro-2H-pyran-2-yloxy)-8-methyl-2-oxo-2H-chromen-3-ylcarbamate]
IC50 ([1]; Table 3, n = 3, read-out: IC50 SkBr3): 17.8 ± 2.4 µM
IC50 ([5]; Table 3, n = 3): 11.4 ± 0.6 µM
IC50 ([2]; Table 3, n = 3, read-out: IC50 MCF-7): 12.1 ± 0.1 µM
IC50 ([6]; Table 3, n = 3): 13 ± 0.2 µM

SMILES: CO[C@@H]1[C@@H](O)[C@@H](O)[C@H](Oc2ccc3cc(NC(=O)c4ccncc4)c(=O)oc3c2C)OC1(C)C [compound 42, N-(7-((2R,3R,4S,5R)-3,4-Dihydroxy-5-methoxy-6,6-dimethyltetrahydro-2H-pyran-2-yloxy)-8-methyl-2-oxo-2H-chromen-3-yl)isonicotinamide]
IC50 ([1]; Table 5, heterocyclic analogues, n = 3, read-out: IC50 SkBr3): > 100 µM
IC50 [5, 15]: 19.2 ± 2.5 µM
IC50 [2, 16]: > 100 µM
IC50 [6, 15]: > 100 µM
IC50 [4, 17]: 34.8 ± 16 µM

SMILES: CO[C@@H]1[C@@H](O)[C@@H](O)[C@H](Oc2ccc3cc(NC(=O)c4cc5ccccc5o4)c(=O)oc3c2C)OC1(C)C [compound 43, N-(7-((2R,3R,4S,5R)-3,4-Dihydroxy-5-methoxy-6,6-dimethyltetrahydro-2H-pyran-2-yloxy)-8-methyl-2-oxo-2H-chromen-3-yl)benzofuran-2-carboxamide]
IC50 [5, 15]: 3.8 ± 0.4 µM
IC50 [2, 16]: 28.6 ± 4.1 µM
IC50 [6, 15]: 9.6 ± 0.3 µM
IC50 [3, 18]: 18.8 ± 4.4 µM
IC50 [4, 17]: 7.9 ± 1.1 µM

SMILES: CO[C@@H]1[C@@H](O)[C@@H](O)[C@H](Oc2ccc3cc(NC(=O)c4cc5ccccc5s4)c(=O)oc3c2C)OC1(C)C [compound 44, N-(7-((2R,3R,4S,5R)-3,4-Dihydroxy-5-methoxy-6,6-dimethyltetrahydro-2H-pyran-2-yloxy)-8-methyl-2-oxo-2H-chromen-3-yl)benzo[b]thiophene-2-carboxamide]
IC50 [5, 15]: 33.2 ± 0.7 µM
IC50 [2, 16]: 96.3 ± 3.7 µM
IC50 [6, 15]: 78.9 ± 3.5 µM
IC50 [3, 18]: 7.4 ± 2.1 µM
IC50 [4, 17]: > 100 µM

Results, then the compound that gave them:

IC50 [1, 7]: > 100 µM
IC50 [2, 8]: > 100 µM
IC50 [3, 9]: > 100 µM
IC50 [4, 10]: > 100 µM
SMILES: COc1ccc(CN(C(=O)c2ccc(OC)c(-c3cccc(OC)c3)c2)c2cnc3cc(O[C@@H]4OC(C)(C)[C@H](OC)[C@@H](O)[C@H]4O)ccc3c2)cc1 [42a, N-(4-Methoxybenzyl)-N-(7-((2R,3R,4S,5R)-3,4-dihydroxy-5-methoxy-6,6-dimethyl-tetrahydro-2H-pyran-2-yloxy)quinolin-3-yl)-4-methoxy-3-(3-methoxyphenyl)-benzamide]

IC50 [1, 7]: 16.5 ± 6.2 µM
IC50 [2, 8]: 13.1 ± 4.1 µM
IC50 [3, 9]: 17.6 ± 4.6 µM
IC50 [4, 10]: 14.2 ± 0.4 µM
SMILES: COc1cccc(-c2cc(C(=O)Nc3cnc4cc(O[C@@H]5OC(C)(C)[C@H](OC)[C@@H](O)[C@H]5O)ccc4c3)ccc2OC)c1 [42b, N-(7-((2R,3R,4S,5R)-3,4-Dihydroxy-5-methoxy-6,6-dimethyl-tetrahydro-2H-pyran-2-yloxy)quinolin-3-yl)-4-methoxy-3-(3-methoxyphenyl)-benzamide]

IC50 [1, 7]: > 100 µM
IC50 [2, 8]: > 100 µM
IC50 [3, 9]: > 100 µM
IC50 [4, 10]: > 100 µM
SMILES: COc1ccc(CN(C(=O)c2ccc(OC)c(-c3cccc(OC)c3)c2)c2ccc3cc(O[C@@H]4OC(C)(C)[C@H](OC)[C@@H](O)[C@H]4O)ccc3c2)cc1 [42c, N-(4-Methoxybenzyl)-N-(6-((2R,3R,4S,5R)-3,4-dihydroxy-5-methoxy-6,6-dimethyl-tetrahydro-2H-pyran-2-yloxy)naphthalen-2-yl)-4-methoxy-3-(3-methoxyphenyl)-benzamide]

IC50 [1, 7]: 38.9 ± 2.4 µM
IC50 [2, 8]: 46.4 ± 5.3 µM
IC50 [3, 9]: 10.9 ± 0.7 µM
IC50 [4, 10]: 19.6 ± 1.6 µM
SMILES: COc1cccc(-c2cc(C(=O)Nc3ccc4cc(O[C@@H]5OC(C)(C)[C@H](OC)[C@@H](O)[C@H]5O)ccc4c3)ccc2OC)c1 [42d, N-(6-((2R,3R,4S,5R)-3,4-Dihydroxy-5-methoxy-6,6-dimethyl-tetrahydro-2H-pyran-2-yloxy)naphthalen-2-yl)-4-methoxy-3-(3-methoxyphenyl)-benzamide]
